In brackets after ≈: the same amount, converted by molar mass. Several values for one entry are separate records, joined by “and”; a condition that tells them apart may be missing. Equal entries are not always repeated. Where two headings read alike, the source gives them in different places.
Key:
porcine PDH E1 subunit = format: biochemical
Procedure: (§1) Reaction mixtures containing 100 mM HEPES, pH 8.0, 2 mM MgCl2, 5 mM NaCl, 1 mM ThDP, 1 mg/mL BSA, 10-20 mM pyruvate, 10% DMSO v/v, and 10-300 μM nitroso substrate were pre-incubated at 37° C. for 5 min. Enzymatic reactions were initiated by addition of 0.5-2 μM DXP synthase (or 0.1 units/ml PDH) and monitored spectrophotometrically by measuring the rate of disappearance of the nitroso substrate at its corresponding λmax. Substrate concentration as a function of time was determined from absorbance values using Beer's Law. Initial reaction rates were determined from the linear range of the reaction progress curve, usually within 1-3 min. Data analysis to determine kcat and Km for each alternative substrate was carried out using GraFit version 7 from Erithacus Software.

DXP synthase = biological target: T1, DXP synthase (Escherichia coli, UniProt P77488); assay: Inhibition of DXP formation by nitroso substrates (HPLC-based assay); format: biochemical, E. coli; settings: 30 μM D-GAP, 80 μM pyruvate, 37° C.; average ± SEM
T1 construct: made in house
T1 sequence (P77488 1-620): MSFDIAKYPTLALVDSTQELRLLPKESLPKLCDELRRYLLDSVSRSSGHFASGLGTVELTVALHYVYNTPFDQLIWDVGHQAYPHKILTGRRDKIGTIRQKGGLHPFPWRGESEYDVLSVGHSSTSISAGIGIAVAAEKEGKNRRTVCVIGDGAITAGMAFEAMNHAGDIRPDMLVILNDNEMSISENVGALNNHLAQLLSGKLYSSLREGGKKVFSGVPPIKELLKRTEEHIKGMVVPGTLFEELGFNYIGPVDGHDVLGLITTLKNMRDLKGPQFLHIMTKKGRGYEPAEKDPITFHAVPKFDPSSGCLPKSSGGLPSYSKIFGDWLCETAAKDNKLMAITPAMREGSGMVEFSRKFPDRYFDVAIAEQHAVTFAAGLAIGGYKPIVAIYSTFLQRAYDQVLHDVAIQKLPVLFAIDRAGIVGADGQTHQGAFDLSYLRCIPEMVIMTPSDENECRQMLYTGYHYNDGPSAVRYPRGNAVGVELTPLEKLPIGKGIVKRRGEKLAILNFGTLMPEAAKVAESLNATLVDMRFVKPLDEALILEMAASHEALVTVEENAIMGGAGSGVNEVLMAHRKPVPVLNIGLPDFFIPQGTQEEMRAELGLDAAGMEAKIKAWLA
Procedure: Enzyme reactions were initiated by addition of 0.1 μM DXP synthase. Aliquots (150 μL) of the enzymatic mixture were removed between 0.5 and 3 minutes and quenched into ice-cold methanol (150 μL). Precipitated protein was removed by centrifugation, and the supernatant was diluted in an equal volume of water. The nitroso substrate was removed by extraction into acetonitrile (3×), using a previously described freeze-extraction technique. ^[32] […] The derivatization mixtures were analyzed by HPLC as previously described. ^[19] To determine initial reaction rates in the presence of varying inhibitor concentration, the D,L-GAP and DXP hydrazone HPLC peak areas were measured, and the product concentration was determined as a percent of total peak area and plotted against reaction time. Initial rates GraFit version 7 from Erithacus Software was utilized to generate IC50 curves.

[1] = biological target: T2, E. coli DXP synthase (DXPS) (Escherichia coli, UniProt P77488); format: biochemical; settings: for kcat: acceptor substrate turnover
T2 construct: made in house
T2 sequence (P77488 1-620): T1 sequence (P77488 1-620)
Procedure: Reaction mixtures containing 100 mM HEPES, pH 8.0, 2 mM MgCl2, 5 mM NaCl, 1 mM ThDP, 1 mg/mL BSA, 10-20 mM pyruvate, 10% DMSO, 0.5 mM 5 mM nitroso substrate were pre-incubated at 37° C. for 5 min. […] Aliquots of enzymatic mixture were removed at various time intervals and quenched into an equal volume of cold methanol. Quenched mixtures were incubated on ice for 20 minutes. Precipitated proteins were removed by centrifugation, and the supernatant was analyzed by HPLC with UV detection using the following conditions: Flow rate=3 mL/min; Solvent A: 100 mM NH4OAc, pH 4.6; Solvent B: acetonitrile; Method: 0-100% B over 10 min. New products formed were extracted from the supernatant using ethyl acetate (3×). […] Products were subsequently characterized by mass spectrometry.
as §1, with “Enzymatic reactions were initiated by addition of 0.5-2 μM DXP synthase (or 0.1 units/ml PDH) and monitored spectrophotometrically by measuring the rate of disappearance of the nitroso substrate at its corresponding λmax.” left out

E. coli DXP synthase = biological target: T3, E. coli DXP synthase (Escherichia coli, UniProt P77488); assay: biochemical
T3 construct: made in house
Procedure: FIG. 4A, FIG. 4B, and FIG. 4C are charts showing competitive inhibition of DXP synthase by pentylacetylphosphonate (PentAP; FIG. 4A), hexylacetylphosphonate (HexAP; FIG. 4B), and octylacetyl phosphonate (OctAP; FIG. 4C). Inhibition assays were performed as previously described^[18], [40]). […] Pyruvate concentration was varied from 12-240 μM and acetylphosphonate concentration was varied: 0 μM (∘), 10 μM (●), 25 μM (□) and 50 μM (▪). Experiments were performed in triplicate, and data were subjected to non-linear regression analysis for Ki determinations (GraphPad Prism). Representative Lineweaver-Burk plots (GraFit from Erithacus Software) are shown for PentAP (FIG. 4A), HexAP (FIG. 4B) and OctAP (FIG. 4C) to illustrate the competitive inhibition mode with respect to pyruvate.
Inhibition of DXP synthase was measured as previously described^[13], [18]. […] Acetylphosphonate concentration was varied from 0 to 250 μM. […] Experiments were performed in triplicate for BAP and in duplicate for iPrAP
In order to evaluate the inhibitory activity of BnAP against DXP synthase, a continuous spectrophotometric coupled assay was used to measure formation of DXP by monitoring IspC consumption of NADPH (340 nm). ^[2] DXP synthase reaction mixtures (previously described) including BnAP (15, 30, and 60 μM), IspC (1 μM) and NADPH (100 μM) were pre-incubated at 37° C. for 5 minutes. Initial rates were measured after the reaction was initiated by the addition of DXP synthase. Inhibition of the coupling enzyme (IspC) by BnAP was not observed up to 1.5 mM. Experiments were performed in triplicate. Double reciprocal analysis of data was carried out using GraFit version 7 from Erithacus Software.

[2] = test system: wild-type K-12 E. coli (ATCC: MG1655); assay: Antimicrobial activity against E. coli K-12 grown in CAMHB; format: cell-based; settings: Escherichia coli, MG1655, 16 h, read-out: minimum inhibitory concentration (MIC90)
Procedure: FIG. 7A and FIG. 7B are charts showing representative growth curves are shown for BAP (FIG. 7A) and BnAP (FIG. 7B). Alkylacetylphosphonates exert dose-dependent delay in E. coli K-12 (MG 1655) growth in CAMHB. Fractional growth (measured at 16 h, blue arrow) was determined relative to the no drug control. Standardized cell cultures were exposed to increasing concentrations of acetylphosphonate, and growth was determined by measuring the OD600 for a period of 16 hours. Acetylphosphonate concentration was varied from 0-5 mM: No drug (light blue), 0.08 mM (orange), 0.16 mM (gray), 0.31 mM (yellow), 0.63 mM (blue), 1.25 mM (green), 2.5 mM (dark blue) and 5.0 mM (brown).
Thus, BnAP, PentAP, HexAP and OctAP, also shown to inhibit DXP synthase, were evaluated for antimicrobial activity against wild-type K-12 E. coli (ATCC: MG1655) grown in rich medium (CAMHB).

[3] = biological target: T4, Porcine pyruvate dehydrogenase (PDH E1 subunit) (Sus scrofa, UniProt P29804); assay: Inhibition of PDH by acetylphosphonates; format: biochemical; settings: Ki^PDH
T4 construct: Ki^PDH; μM); Ki^PDH
T4 sequence (P29804 1-390): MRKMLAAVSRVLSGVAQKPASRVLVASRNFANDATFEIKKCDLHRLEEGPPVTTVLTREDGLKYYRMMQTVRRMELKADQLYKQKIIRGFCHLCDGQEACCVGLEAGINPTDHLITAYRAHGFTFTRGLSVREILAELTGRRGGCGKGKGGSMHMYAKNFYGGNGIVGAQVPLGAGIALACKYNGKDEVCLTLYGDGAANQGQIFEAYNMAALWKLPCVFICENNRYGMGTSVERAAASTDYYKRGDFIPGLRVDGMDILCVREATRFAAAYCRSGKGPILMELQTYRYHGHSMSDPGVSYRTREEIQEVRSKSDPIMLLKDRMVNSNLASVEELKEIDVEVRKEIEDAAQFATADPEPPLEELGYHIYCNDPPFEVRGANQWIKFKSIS
Procedure: FIG. 6A, FIG. 6B, and FIG. 6C are charts showing Competitive inhibition of procine PDH E1 subunit by PentAP (FIG. 6A), HexAP (FIG. 6B) and OctAP (FIG. 6C). Inhibition assays were performed as previously described^[18]. Pyruvate concentration was varied from 12.5-250 μM and acetylphosphonate concentration was varied: 0 μM (∘), 250 μM (PentAP) or 200 μM (HexAP and OctAP) (●), 500 μM (□) and 1000 μM (▪). Experiments were performed in triplicate, and data were subjected to non-linear regression analysis for Ki determinations (GraphPad Prism). Representative Lineweaver-Burk plots (GraFit from Erithacus Software) are shown for PentAP (FIG. 6A), HexAP (FIG. 6B) and OctAP (FIG. […]) to illustrate the competitive inhibition mode with respect to pyruvate.
Pyruvate dehydrogenase activity was measured spectrophotometrically as previously reported ^[38] by monitoring absorbance changes at 340 nm due to reduction of NAD^+ by PDH. Reaction mixtures contained 100 mM HEPES (pH 8.0), 1 mg/mL BSA, 0.2 mM ThDP, 0.1 mM coenzyme A, 1 mM MgCl2, 2 mM cysteine, 0.3 mM tris(2-carboxyethyl)phosphine (TCEP). The reaction was initiated with enzyme (0.01 units/ml) and activity was monitored at 30° C. For inhibition studies, reaction mixtures (described above) including BnAP (0.5, 1, 2.25 mM) were pre-incubated at 30° C. for 5 minutes. Initial rates were measured immediately after reactions were initiated by addition of PDH (0.01 units/ml). Double reciprocal analysis of data was carried out using GraFit version 7 from Erithacus Software.

[4] = 10-20 mM pyruvate, pH 8.0, 10% DMSO, 37° C., average ± SEM
[5] = acceptor substrate, 10-20 mM pyruvate, pH 8.0, 10% DMSO, 37° C., average ± SEM
[6] = Table 4, read-out: In vitro DXP syn IC50
[7] = Ki (DXP synthase), competitive with respect to pyruvate

benzyl acetylphosphonate [Compound 1]
Km (porcine PDH E1 subunit; 10-20 mM pyruvate, pH 8.0, 37° C., average ± SEM): 350 ± 30 µM
Km^PDH/Km^DXPS (porcine PDH E1 subunit; ratio porcine PDH E1 vs E. coli DXPS): 2.7
IC50 (DXP synthase): 208 ± 20 µM
kcat [1, 4]: 2.92 ± 0.317 s⁻¹
Km [1, 5]: 133 ± 18 µM

C=CCOP(=O)(O)C(C)=O [Compound 12]
IC50 (E. coli DXP synthase): 20 µM

CC(=O)P(=O)(O)OC1Cc2ccccc2C1 [Compound 2]
IC50 (E. coli DXP synthase; [6]): 64.5 µM

Cc1nn(C(C)C)c(C)c1N=O [Compound 9]
IC50 (DXP synthase): > 2000 µM
kcat [1, 4]: 0.0233 ± 0.0033 s⁻¹
Km [1, 5]: 387 ± 18 µM

COc1cccc(COP(=O)([O-])C(C)=O)c1.[Li+] [Compound 3]
IC50 (E. coli DXP synthase; [6]): 37.4 µM
kcat [1, 4]: 0.6 ± 0.12 s⁻¹
Km [1, 5]: 99 ± 16 µM

CC(=O)P(=O)(O)OCc1ccccc1 [Compound 1, benzyl acetylphosphonate]
MIC90 [2]: 630 µM (≈ 135 µg/mL)
Ki ([3]; Table 5 (no unit in table; μM)): 880 ± 78 µM
Ki ([3]; competitive with respect to pyruvate): 882 ± 78 µM
Ki (E. coli DXP synthase; [7]): 10.4 ± 1.3 µM
Ki (E. coli DXP synthase; Ki (DXP synthase, with respect to D-GAP), uncompetitive with respect to D-GAP, 200 μM pyruvate): 70 ± 8 µM
Ki (E. coli DXP synthase; Ki^DXPS, Table 5 (no unit in table; μM), vs pyruvate): 10 ± 1 µM

CC(=O)P(=O)([O-])OCCc1cccc2ccccc12.[Li+] [Compound 5]
IC50 (E. coli DXP synthase; [6]): 77 µM
Ki (E. coli DXP synthase; Table 4, read-out: In vitro DXP syn Ki): 55 µM
kcat [1, 4]: 0.0183 ± 0.0033 s⁻¹
Km [1, 5]: 41 ± 10 µM

NS(=O)(=O)c1ccc2c(N=O)c(O)ccc2c1 [Compound 7]
kcat [1, 4]: 0.0197 ± 0.00067 s⁻¹
Km [1, 5]: 18 ± 4 µM

O=Nc1ccc(O)c2ncccc12 [Compound 10]
substrate usage by DXP synthase ([1]; in words): did not act as substrate

O=Nc1ccccc1 [Substrate 1, nitrosobenzene, reference compound]
increase in Km for PDH compared to DXP synthase (porcine PDH E1 subunit): 2.7 fold

COc1ccc2ccc(O)c(N=O)c2c1 [Compound 8]
IC50 (DXP synthase): > 2000 µM
kcat [1, 4]: 0.0217 ± 0.0033 s⁻¹
Km [1, 5]: 63 ± 7 µM

O=Nc1c(O)ccc2cc(Br)ccc12 [Compound 6]
kcat [1, 4]: 0.0333 ± 0.0033 s⁻¹
Km [1, 5]: 24 ± 6 µM

CCCCCCOP(=O)(O)C(C)=O [HexAP, Hexylacetylphosphonate]
MIC90 [2]: 5000 µM (≈ 1040 µg/mL)
Ki ([3]; Table 5 (no unit in table; μM)): 117 ± 9 µM
Ki (E. coli DXP synthase; [7]): 8.9 ± 0.5 µM

O=C[C@H](O)COP(=O)(O)O [D-GAP, D-glyceraldehyde 3-phosphate, reference compound]
kcat [1, 4]: 1.7 ± 0.12 s⁻¹
Km ([1]; pH 8): 28 ± 4 µM

CC(=O)P(=O)(O)OC(C)C [iPrAP, Isopropylacetylphosphonate]
IC50 (E. coli DXP synthase; pyruvate 95 μM, D-GAP 56 μM, error 95% Confidence Interval, read-out: IC50 (DXP synthase)): 250 µM and 245 µM
